Laboratory results published in patent US11707467B2, “(17-ß)-3-oxoandrost-4-en-17YL tridecanoate compositions and methods of their preparation and use” (Lipocine Inc., priority 2014, dated 2023).

Legend:
[1] = system: developing oocytes in female mice; conditions: cited from earlier work
male and female mice = conditions: cited from earlier work
[2] = Pharmacokinetic study: % responders by serum testosterone Cavg and Cmax; type: in vivo, human
Experimental: Some of the dosage forms of compositions described herein comprising or prepared from substantially pure (17-β)-3-Oxoandrost-4-en-17-yl tridecanoate were administered to human subjects as a single dose of the esters to subjects. Serial blood samples were drawn at predetermined time (e.g., t=0, 12, 24, etc.) and analyzed for testosterone concentration using a validated HPLC-MS/MS analytical method. The Cmax, Cavg t1-t2, Tmax and AUCt1-t2 are calculated for testosterone in the serum of the subjects. Pharmacokinetic and statistical analyses are performed on the data obtained from the subjects. The pharmacokinetic parameters are defined as follows: • AUCt1-t2: The area under the serum concentration versus time curve, from time t1 (in hours) to time t2 (in hours) measurable concentration of the administered drug, as calculated by the linear trapezoidal method. […] This represents the average serum testosterone level over a period starting from time 0 (zero) hours to […] post-administration of dose. It should also be noted that Cavg t0-t24 is also referred to as simply “Cavg” in this invention. • Cavg t0-t12: The average serum concentration of testosterone obtained by dividing the […] value by 12. This represents the average serum testosterone level over a period starting from time 0 (zero) hours to […] post-administration of dose. • Cavg t12-t24: The average serum concentration of testosterone obtained by dividing the AUCt12-t24 value by 12. This represents the average serum testosterone level over the second half of the 24-hours post-administration of dose period; i.e., from a period starting from time 12 hours to time 24 hours post-administration of dose.

[3] = starting 100 (±50) mg T equivalent QD or BID, same formulation
[4] = starting 300 (±50) mg T equivalent QD, 12-20% API, 55-70% lipophilic additive, 12-20% hydrophilic additive
[5] = starting 350 (±100) mg T equivalent BID, same formulation
[6] = starting 1000 (±200) mg T equivalent QD or BID, same formulation

| SMILES | Effect on developing oocytes [1] | Carcinogenicity (male and female mice) | % Responders with Cave t0-t24 (ng/dL) 300-1140 [2, 3] | % Responders with Cmax (ng/dL) 1800-2500 [2, 3] | % Responders with Cmax (ng/dL) >2500 [2, 3] | % Responders with Cmax (ng/dL) ≤1500 [2, 3] [%] | % Responders with Cave t0-t24 (ng/dL) 300-1140 [2, 4] [%] | % Responders with Cmax (ng/dL) 1800-2500 [2, 4] | % Responders with Cmax (ng/dL) >2500 [2, 4] | % Responders with Cmax (ng/dL) ≤1500 [2, 4] [%] | % Responders with Cave t0-t24 (ng/dL) 300-1140 [2, 5] [%] | % Responders with Cmax (ng/dL) 1800-2500 [2, 5] | % Responders with Cmax (ng/dL) >2500 [2, 5] | % Responders with Cmax (ng/dL) ≤1500 [2, 5] [%] | % Responders with Cave t0-t24 (ng/dL) 300-1140 [2, 6] [%] | % Responders with Cmax (ng/dL) 1800-2500 [2, 6] | % Responders with Cmax (ng/dL) >2500 [2, 6] | % Responders with Cmax (ng/dL) ≤1500 [2, 6] [%] |
| --- | --- | --- | --- | --- | --- | --- | --- | --- | --- | --- | --- | --- | --- | --- | --- | --- | --- | --- |
| C[C@]12CCC(=O)C=C1CC[C@@H]1[C@@H]2CC[C@]2(C)C(=O)CC[C@@H]12 [androstenedione] | induces abnormalities in morphology and function of developing oocytes | carcinogenic | – | – | – | – | – | – | – | – | – | – | – | – | – | – | – | – |
| CCCCCCCCCCCCC(=O)O[C@H]1CC[C@H]2[C@@H]3CCC4=CC(=O)CC[C@]4(C)[C@H]3CC[C@]12C [(17-β)-3-Oxoandrost-4-en-17-yl tridecanoate] | – | – | 50-65% | 0-5% | 0-1% | 100 | 100 | 0-5% | 0-1% | 100 | 100 | 0-5% | 0-1% | 100 | 100 | 20-30% | 60-80% | 0 |
